According to patent US6551790B2, “Process for glucuronidation screening” (PanVera LLC, priority 1998, dated 2003):
“Also recorded” adds a separate entry of the source. Where two headings read alike, the source gives them in different places.

Tests used:
[1] = target: T1, bacterial β-glucuronidase (Escherichia coli, UniProt P05804); details: read-out: apparent Km value for cleavage by β-glucuronidase; linear conditions of protein concentration and incubation time; FIG. 1
[2] = target: T1, bacterial β-glucuronidase; test: Inhibition of 4-methylumbelliferyl-β-D-glucuronide cleavage by β-D-glucuronides; format: biochemical; design: purchased Sigma, St. Louis Mo; G-7396; details: for inhibition of 4-methylumbelliferyl-β-D-glucuronide cleavage (production of 4-methylumbelliferone): FIG. 2, varying glucuronide concentrations
Source text: FIG. 2 depicts the effect of varying concentrations of β-D-glucuronide on the ability of β-glucuronidase to cleave various substrates.
Tetrahydrocortisone 3-β-D-glucuronide was obtained from Molecular Probes, Eugene, Oreg. Recombinant control and UGT1A6 membrane preparations were generated and are commercially available from PanVera Corporation, Madison Wis. All other reagents were analytical grade or better and purchased from a variety of commercial sources.
In order to show the feasibility of developing a high throughput inhibition assay, we examined the potential of a variety of structurally dissimilar, commercially available β-D-glucuronides to act as inhibitors for the cleavage of 4-methylumbelliferyl-β-D-glucuronide. These β-D-glucuronides represent compounds that might potentially be formed by UGT activity e.g. phenol and steroid glucuronides.

recombinant human UGT1A6 = recombinant human UGT1A6 (Homo sapiens, UniProt P19224)
Chain of recombinant human UGT1A6 (P19224 27-532): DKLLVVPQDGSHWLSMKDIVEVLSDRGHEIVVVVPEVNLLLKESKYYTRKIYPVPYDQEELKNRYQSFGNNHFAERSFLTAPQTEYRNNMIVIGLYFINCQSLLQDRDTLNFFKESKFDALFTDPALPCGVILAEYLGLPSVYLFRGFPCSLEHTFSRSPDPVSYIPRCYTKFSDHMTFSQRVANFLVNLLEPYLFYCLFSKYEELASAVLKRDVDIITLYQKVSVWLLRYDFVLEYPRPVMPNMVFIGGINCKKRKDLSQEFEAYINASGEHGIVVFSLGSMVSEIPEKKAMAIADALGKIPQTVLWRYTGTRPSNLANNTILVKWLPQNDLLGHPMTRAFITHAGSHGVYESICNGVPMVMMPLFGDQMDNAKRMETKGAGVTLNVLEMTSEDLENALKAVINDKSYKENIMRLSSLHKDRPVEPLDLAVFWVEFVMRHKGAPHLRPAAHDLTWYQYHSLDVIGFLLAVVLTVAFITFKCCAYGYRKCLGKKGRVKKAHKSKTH
Protocol: Two approaches were taken to test the feasibility of coupling the UGT-dependent production of glucuronides to inhibition of fluorescent product formation by β-D-glucuronidase. The first involved extracting the UGT reaction products and adding them to the β-D-glucuronidase fluorescence assay reagents. The second involved adding the β-D-glucuronidase reaction components directly to the quenched UGT reaction. […] Following extraction, 4-methylumbelliferyl-β-D-glucuronide assay reagents were added to the extracted, dried reaction residues.
In the second approach, 4-methylumbelliferyl-β-D-glucuronide assay reagents were added directly to a β-naphthyl glucuronidation assay that was performed in a 96 well plate. […] The horogeneous format circumvented the need for extraction, but required longer incubation periods with the recombinant enzyme.
After identifying a suitable β-glucuronidase and determining the optimal concentrations of vious assay components, the fluorescent assay was tested for its ability to detect β-glucuronides generated by a recombinant UGT enzyme. […] To establish the feasibility of performing the assay in an HTS format, the assay was conducted in a 96 well plate in a homogenous format, i.e., without extracting the glucuronide produced in the UGT reaction prior to starting the β-glucuronidase reaction.

UGT2B7Y(268) [3] = target: T2, UGT2B7Y(268) (Homo sapiens, UniProt P16662); details: reported by one laboratory; cited from earlier work
T2 sequence (P16662 24-529): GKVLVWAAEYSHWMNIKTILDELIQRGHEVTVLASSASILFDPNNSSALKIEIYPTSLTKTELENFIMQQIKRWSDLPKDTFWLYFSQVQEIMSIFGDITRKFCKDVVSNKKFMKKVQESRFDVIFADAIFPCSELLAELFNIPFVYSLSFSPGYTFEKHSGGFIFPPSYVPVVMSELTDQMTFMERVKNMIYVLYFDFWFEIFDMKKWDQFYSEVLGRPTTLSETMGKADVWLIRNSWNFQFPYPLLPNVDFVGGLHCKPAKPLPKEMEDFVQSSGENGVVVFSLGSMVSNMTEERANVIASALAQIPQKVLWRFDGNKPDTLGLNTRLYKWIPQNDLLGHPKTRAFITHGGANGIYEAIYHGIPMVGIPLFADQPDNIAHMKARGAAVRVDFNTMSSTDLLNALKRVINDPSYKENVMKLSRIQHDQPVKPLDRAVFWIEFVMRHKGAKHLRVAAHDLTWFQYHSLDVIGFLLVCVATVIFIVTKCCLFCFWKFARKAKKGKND

UGT2B7H(268) [4] = target: T3, UGT2B7H(268) (Homo sapiens, UniProt P16662, Y268H); details: reported by another laboratory; cited from earlier work
T3 sequence (P16662 24-529 Y268H): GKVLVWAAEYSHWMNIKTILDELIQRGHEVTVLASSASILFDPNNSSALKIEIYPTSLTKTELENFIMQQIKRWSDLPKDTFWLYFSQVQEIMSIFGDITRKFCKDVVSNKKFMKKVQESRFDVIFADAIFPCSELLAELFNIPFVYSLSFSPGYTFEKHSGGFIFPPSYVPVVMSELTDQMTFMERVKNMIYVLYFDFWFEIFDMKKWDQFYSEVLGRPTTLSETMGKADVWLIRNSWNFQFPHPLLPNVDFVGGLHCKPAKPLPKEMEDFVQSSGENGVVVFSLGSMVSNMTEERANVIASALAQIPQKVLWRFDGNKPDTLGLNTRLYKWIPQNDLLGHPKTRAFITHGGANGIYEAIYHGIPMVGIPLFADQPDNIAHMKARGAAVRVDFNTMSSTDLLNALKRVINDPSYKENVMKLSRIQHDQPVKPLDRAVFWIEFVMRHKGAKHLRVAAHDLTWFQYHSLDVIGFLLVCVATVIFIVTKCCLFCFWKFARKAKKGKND

UGT2B7 = target: T4, UGT2B7 (Homo sapiens, UniProt P16662)
T4 sequence (P16662 24-529): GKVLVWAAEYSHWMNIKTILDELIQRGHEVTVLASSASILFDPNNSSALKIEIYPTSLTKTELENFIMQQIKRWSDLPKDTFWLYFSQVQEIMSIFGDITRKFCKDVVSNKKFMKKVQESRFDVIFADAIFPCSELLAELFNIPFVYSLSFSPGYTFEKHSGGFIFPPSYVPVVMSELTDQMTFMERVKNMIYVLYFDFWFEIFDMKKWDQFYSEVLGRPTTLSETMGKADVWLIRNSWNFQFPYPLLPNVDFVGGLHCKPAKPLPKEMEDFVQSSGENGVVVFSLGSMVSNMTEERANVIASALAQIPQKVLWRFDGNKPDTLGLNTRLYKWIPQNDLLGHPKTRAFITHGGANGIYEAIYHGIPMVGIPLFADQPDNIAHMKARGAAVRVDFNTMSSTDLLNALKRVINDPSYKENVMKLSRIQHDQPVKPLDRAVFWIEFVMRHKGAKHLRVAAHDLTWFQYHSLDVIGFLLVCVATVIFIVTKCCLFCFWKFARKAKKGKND
Source text: Heterologous expression and characterization of full length UGT 2B7.
Stable UGT2B7 cell lines were established from embryonic human kidney cells (HK293 cells) and microsomal membrane fractions from these cells were used to assess the properties of the recombinant enzyme. […] The specificity of the purified UGT2B7 will be assessed by determining overall catalytic efficiency with each aglycone substrate, as reflected in a ratio of the two fundamental Michaelis kinetic parameters, Vmax/Km. Reaction rates will be determined over a range of substrate concentrations and nonlinear regression will be used to fit the UGT rate data to velocity versus substrate curves (Graph Pad, Prism). Vmax/Km values will be determined and compared with those determined with the enzyme isolated from HK293 cells (Table 1). […] This ratio will be determined for the purified enzyme using HPLC-based methods for separation and quantification of the two glucuronides.

UGT2B7Y(268) [5] = target: T2, UGT2B7Y(268); test: Kinetics of glucuronidation, membrane preparations of HK293 cells stably expressing UGT2B7Y(268)
UGT2B7H(268) [6] = target: T3, UGT2B7H(268); test: Kinetics of glucuronidation, membrane preparations of HK293 cells stably expressing UGT2B7H(268)
UGT2B7H(268) [7] = target: T3, UGT2B7H(268)
UGT2B7Y(268) [8] = target: T2, UGT2B7Y(268)
[9] = cited from earlier work
[10] = substrate: C=CCN1CC[C@]23c4c5ccc(O)c4O[C@H]2[C@@H](O)C=C[C@H]3[C@H]1C5; test: cells, lysate or membranes named
[11] = substrate: O=C1CC[C@@]2(O)[C@H]3Cc4ccc(O)c5c4[C@@]2(CCN3CC2CC2)[C@H]1O5; test: cells, lysate or membranes named; details: two values = two different passages of cultured cells
[12] = substrate: CN1CC[C@]23c4c5ccc(O)c4O[C@H]2C(=O)CC[C@@]3(O)[C@H]1C5; test: cells, lysate or membranes named
[13] = substrate: C=CCN1CC[C@]23c4c5ccc(O)c4O[C@H]2C(=O)CC[C@@]3(O)[C@H]1C5; test: cells, lysate or membranes named; details: two values = two different passages of cultured cells

T1 sequence (P05804 whole entry): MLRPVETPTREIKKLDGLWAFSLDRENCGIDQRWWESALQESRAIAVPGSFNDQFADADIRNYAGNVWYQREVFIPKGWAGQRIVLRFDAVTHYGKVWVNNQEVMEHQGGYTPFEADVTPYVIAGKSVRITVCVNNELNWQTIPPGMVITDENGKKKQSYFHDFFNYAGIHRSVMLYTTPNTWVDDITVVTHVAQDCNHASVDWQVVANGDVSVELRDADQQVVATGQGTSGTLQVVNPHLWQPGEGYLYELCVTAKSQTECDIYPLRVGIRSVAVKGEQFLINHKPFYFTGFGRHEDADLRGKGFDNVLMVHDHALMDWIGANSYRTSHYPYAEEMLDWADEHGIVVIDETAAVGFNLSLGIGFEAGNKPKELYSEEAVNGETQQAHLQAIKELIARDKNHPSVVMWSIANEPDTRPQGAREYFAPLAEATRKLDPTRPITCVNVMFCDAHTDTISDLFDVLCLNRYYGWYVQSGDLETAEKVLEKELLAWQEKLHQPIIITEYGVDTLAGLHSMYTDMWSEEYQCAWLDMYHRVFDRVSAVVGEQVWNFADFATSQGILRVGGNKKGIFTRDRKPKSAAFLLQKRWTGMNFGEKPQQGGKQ

Cc1cc(=O)oc2cc(O[C@@H]3O[C@H](C(=O)O)[C@@H](O)[C@H](O)[C@H]3O)ccc12 [4-methylumbelliferyl-β-D-glucuronide]
Km [1]: ~56 µM

O=C(O)[C@H]1O[C@@H](Oc2cccc3ccccc23)[C@H](O)[C@@H](O)[C@@H]1O [α-naphthyl β-D-glucuronide]
inhibition of 4-methylumbelliferyl-β-D-glucuronide cleavage (production of 4-methylumbelliferone) [2]: weakest; also recorded: weak competitor | inhibition of 4-methylumbelliferyl-β-D-glucuronide cleavage (production of 4-methylumbelliferone) ([2]; listed as α-naphthol β-D-glucuronide): weak competitive inhibitor

Oc1cccc2ccccc12 [α-naphthol]
non-specific interference of the aglycone with the cleavage assay ([2]; residues from 0 time point extractions, FIG. 3 panel A): does not interfere non-specifically | 4-methylumbelliferyl β-D-glucuronide cleavage slower with UGT1A6 assay compared to control (recombinant human UGT1A6): 60%

CC1CCC(C(C)C)C(O)C1 (stereo not shown) [menthol]
activity toward glucuronide formation (UGT2B7Y(268) [3]): active | activity toward glucuronide formation (UGT2B7H(268) [4]): inactive

C=CCN1CC[C@]23c4c5ccc(O)c4O[C@H]2[C@@H](O)C=C[C@H]3[C@H]1C5 [nalorphine]
Glucuronidation activity towards opioids (UGT2B7): demonstrated

CC(C)NC[C@H](O)COc1cccc2ccccc12 [S-propanolol]
Vmax (UGT2B7Y(268) [5]): 70, 140 pmol/min/mg protein | Vmax (UGT2B7H(268) [6]): 148 ± 30 pmol/min/mg protein | Efficiency Vmax/Km (x100) (UGT2B7H(268) [7]): 205 | Km (UGT2B7H(268) [7]): 72 ± 19 µM | Efficiency Vmax/Km (x100) (UGT2B7Y(268) [8]): 38, 259

CN1CC[C@]23c4c5ccc(O)c4O[C@H]2[C@@H](O)C=C[C@H]3[C@H]1C5 [morphine]
Glucuronidation activity towards opioids (UGT2B7): demonstrated

CN1CC[C@]23c4c5ccc(O)c4O[C@H]2[C@@H](O[C@@H]2O[C@H](C(=O)O)[C@@H](O)[C@H](O)[C@H]2O)C=C[C@H]3[C@H]1C5 [morphine-6-O-glucuronide]
effectiveness as an analgesic relative to the parent compound ([9]; clinical studies, versus morphine): 2-3 times

O=C1CC[C@@]2(O)[C@H]3Cc4ccc(O)c5c4[C@@]2(CCN3CC2CC2)[C@H]1O5 [naltrexone]
Vmax (UGT2B7Y(268) [5]): 840, 1130 pmol/min/mg protein

C[C@]12CC[C@@H]3c4ccc(O[C@@H]5O[C@H](C(=O)O)[C@@H](O)[C@H](O)[C@H]5O)cc4CC[C@H]3[C@@H]1CC[C@@H]2O [β-estradiol-3-(β-D-glucuronide)]
inhibition of 4-methylumbelliferyl-β-D-glucuronide cleavage (production of 4-methylumbelliferone) [2]: strongest | inhibition of 4-methylumbelliferyl-β-D-glucuronide cleavage (production of 4-methylumbelliferone) ([2]; listed as estradiol β-D-glucuronide): More potent inhibitors

C=CCN1CC[C@]23c4c5ccc(O)c4O[C@H]2C(=O)CC[C@@]3(O)[C@H]1C5 [naloxone]
Vmax (UGT2B7Y(268) [5]; UGT2B7Y, two values = two different passages of cultured cells): 2550 pmol/min/mg protein | Vmax (UGT2B7H(268) [6]; UGT2B7H, two values = two different passages of cultured cells): 4530 pmol/min/mg protein | Glucuronidation activity towards opioids (UGT2B7): demonstrated

CC(C)NC[C@@H](O)COc1cccc2ccccc12 [R-propanolol]
Vmax (UGT2B7Y(268) [5]): 96 pmol/min/mg protein | Vmax (UGT2B7H(268) [6]): 194, 86 pmol/min/mg protein | Efficiency Vmax/Km (x100) (UGT2B7H(268) [7]): 192 | Efficiency Vmax/Km (x100) (UGT2B7Y(268) [8]): 53 | Km (UGT2B7Y(268) [8]): 180 µM

O=C(O)[C@H]1O[C@H](OP(=O)(O)OP(=O)(O)OC[C@H]2O[C@@H](n3ccc(=O)[nH]c3=O)[C@H](O)[C@@H]2O)[C@H](O)[C@@H](O)[C@@H]1O [UDPGA, Uridine 5′-diphosphoglucuronic acid]
inhibition of 4-methylumbelliferyl-β-D-glucuronide cleavage (production of 4-methylumbelliferone) [2]: not an effective competitor

CN1CC[C@]23c4c5ccc(O[C@@H]6O[C@H](C(=O)O)[C@@H](O)[C@H](O)[C@H]6O)c4O[C@H]2[C@@H](O)C=C[C@H]3[C@H]1C5 [morphine-3-O-glucuronide]
analgesic effects ([9]; human, in vivo): devoid of analgesic effects | effect on the analgesic activity of morphine and morphine-6-O-glucuronide ([9]; human, in vivo): counteract

B1: UGT2B7Y(268) (Homo sapiens) (protein)
chain: GKVLVWAAEYSHWMNIKTILDELIQRGHEVTVLASSASILFDPNNSSALKIEIYPTSLTKTELENFIMQQIKRWSDLPKDTFWLYFSQVQEIMSIFGDITRKFCKDVVSNKKFMKKVQESRFDVIFADAIFPCSELLAELFNIPFVYSLSFSPGYTFEKHSGGFIFPPSYVPVVMSELTDQMTFMERVKNMIYVLYFDFWFEIFDMKKWDQFYSEVLGRPTTLSETMGKADVWLIRNSWNFQFPYPLLPNVDFVGGLHCKPAKPLPKEMEDFVQSSGENGVVVFSLGSMVSNMTEERANVIASALAQIPQKVLWRFDGNKPDTLGLNTRLYKWIPQNDLLGHPKTRAFITHGGANGIYEAIYHGIPMVGIPLFADQPDNIAHMKARGAAVRVDFNTMSSTDLLNALKRVINDPSYKENVMKLSRIQHDQPVKPLDRAVFWIEFVMRHKGAKHLRVAAHDLTWFQYHSLDVIGFLLVCVATVIFIVTKCCLFCFWKFARKAKKGKND
Km [10]: 77, 121 μM | Vmax [10]: 2870, 3650 pmol/min/mg protein | Km ([11]; other: UGT2B7Y): 140, 180 μM | Km [12]: 1360, 900 μM | Vmax [12]: 5640, 6040 pmol/min/mg protein | Km ([13]; other: UGT2B7Y): 50, 40 μM | Vmax ([13]; other: UGT2B7Y): 3750, 2550 pmol/min/mg protein

B2: UGT2B7H(268) (Homo sapiens; Y268H) (protein)
chain: GKVLVWAAEYSHWMNIKTILDELIQRGHEVTVLASSASILFDPNNSSALKIEIYPTSLTKTELENFIMQQIKRWSDLPKDTFWLYFSQVQEIMSIFGDITRKFCKDVVSNKKFMKKVQESRFDVIFADAIFPCSELLAELFNIPFVYSLSFSPGYTFEKHSGGFIFPPSYVPVVMSELTDQMTFMERVKNMIYVLYFDFWFEIFDMKKWDQFYSEVLGRPTTLSETMGKADVWLIRNSWNFQFPHPLLPNVDFVGGLHCKPAKPLPKEMEDFVQSSGENGVVVFSLGSMVSNMTEERANVIASALAQIPQKVLWRFDGNKPDTLGLNTRLYKWIPQNDLLGHPKTRAFITHGGANGIYEAIYHGIPMVGIPLFADQPDNIAHMKARGAAVRVDFNTMSSTDLLNALKRVINDPSYKENVMKLSRIQHDQPVKPLDRAVFWIEFVMRHKGAKHLRVAAHDLTWFQYHSLDVIGFLLVCVATVIFIVTKCCLFCFWKFARKAKKGKND
Km [10]: 141, 171 μM | Vmax [10]: 3990, 4670 pmol/min/mg protein | Km ([11]; other: UGT2B7H): 63, 200 μM | Km [12]: 540, 670 μM | Vmax [12]: 7510, 8570 pmol/min/mg protein | Km ([13]; other: UGT2B7H): 41, 60 μM | Vmax ([13]; other: UGT2B7H): 3810, 4530 pmol/min/mg protein
